# In patent US5962314A, “Calcium receptor-active molecules” (priority 1997, dated 1999):
# “Also recorded” adds a separate entry of the source.
# Columns and labels:
# human parathyroid cells = assay: PTH secretion from human parathyroid cells; type: cell-based; settings: human (adenoma) parathyroid cells
# Protocol: PTH secretion was measured by first suspending cells in PCB containing 0.5 mM CaCl2 and 0.1% BSA.
# For human cells, a commercially available radioimmunoassay kit (INS-PTH; Nichols Institute, Los Angeles, Calif.) which recognizes intact and N-terminal human PTH was used because GW-1 antibody recognizes human PTH poorly.
# serum ionized calcium = serum ionized calcium in a human; type: in vivo; settings: higher single oral doses
# Description: A range of single oral doses was used to assess safety, tolerance, and changes in primary hyperparathyroidism markers (e.g., plasma concentrations of parathyroid hormone and ionized serum calcium) and of serum calcitonin.
# serum calcium = assay: hypocalcemic response in thyroidectomized rats; type: in vivo, rat; settings: 3 to 100 mg/kg p.o.
# Description: In subsequent studies, rats received a thyroidectomy (parathyroid glands intact). This surgical procedure effectively removed the C-cells secreting calcitonin and therefore enabled the relative contributions of PTH and calcitonin to the hypocalcemic effect of this compound to be determined. […] The only difference was that the rate of onset of the hypqcalcemic response was somewhat delayed in thyroidectomized animals. […] Stimulatory effects of this compound on calcitonin secretion increases the rate of onset, but not the extent, of hypocalcemia.
# PTH = PTH levels in rats; type: in vivo, rat; settings: NPS R-568 oral, rats
# Description: The fall in blood Ca^2+ at this time was paralleled by a proportional fall in the levels of blood total calcium.
compound,measurement,setting,value
NC[C@@H]1O[C@H](O[C@H]2[C@@H](O)[C@H](O[C@@H]3[C@@H](O)[C@H](N)C[C@H](N)[C@H]3O[C@H]3O[C@H](CN)[C@@H](O)[C@H](O)[C@H]3N)O[C@@H]2CO)[C@H](N)[C@@H](O)[C@@H]1O [Neomycin],effect on PTH secretion,human parathyroid cells; listed as Neomycin B,inhibited PTH secretion from human parathyroid cells
same,effect on PTH secretion,human parathyroid cells; listed as neomycin B,inhibit PTH secretion
"COc1cccc([C@@H](C)NCCCc2ccccc2Cl)c1 [NPS R-568, (R)-(+)-N-[3-(2-chlorophenyl)propyl]-α-methyl-3-methoxybenzylamine]",effect on serum ionized calcium in human,serum ionized calcium,decrease in serum ionized calcium concentration
same,hypocalcemic response in thyroidectomized rats,serum calcium,hypocalcemic response equal in magnitude to that produced in sham-operated animals
same,"effect on PTH, oral",PTH,"rapid, dose-dependent decrease in the plasma levels of PTH; also recorded: decreases in the levels of serum PTH"
